From publication PMC3297001, “Four Eremophilane Sesquiterpenes from the Mangrove Endophytic Fungus Xylaria sp. BL321” (2012)

Target: α-glucosidase
Assay: enzyme assay with PNPG substrate, absorbance at […] nm; activation ([…]) at […], inhibition at higher concentration
Type: biochemical

IC50: 6.54 µM
SMILES: C=C(C=O)[C@@H]1C[C@@]2(C)C(=CC1=O)[C@H](OC(=O)/C=C/C=C/C(C)CC(C)CC)CC[C@@H]2C(=O)O (stereo partly shown) [compound 4, 07H239-A]
